The subject of test [1] is Aspergillus niger (16404). Put plainly: Minimum Inhibitory Concentration (MIC) test, 96-well microtiter plate. The note with it: 48 hrs at 36° C., Sabouraud Dextrose Broth. In kind it is cell-based. How it is done:
(§1) MICs for the organisms were determined using a standard 96-well microtiter plate assay in Tryptic Soy Broth (TSB) or Sabouraud Dextrose Broth (SDB). A stock solution (2500 ppm) of Octenidine distearate was prepared in methanol and stock solutions (2500 ppm) of Octenidine dihydrochloride and PHMB were prepared in absolute ethanol. […] Fungal inocula were grown up on Sabouraud Dextrose Agar plates (yeast) or Potato Dextrose Agar plates (mold) and mold spores and yeast cells were adjusted to approximately 100,000 per milliliter in Sabouraud Dextrose Broth (pH 5.6). Bacterial and fungal cultures were used to inoculate the serially diluted antimicrobials in the 96 well microplate and the plate was then incubated for 48 hrs at 36° C. The lowest concentration of test compound inhibiting growth at 48 hrs. (as determined by visual inspection) was recorded as the Minimum Inhibitory Concentration (MIC)

Test [2] has as its system Aureobasidium pullulans (9348). Described as above. In kind it is cell-based. As to conditions: 48 hrs at 36° C., Sabouraud Dextrose Broth. The procedure:
as §1

Test [3] deals with Bacillus subtilus (6633). The test is described as above. As to conditions: 48 hrs at 36° C., visual inspection. In kind it is cell-based. How it is done: as §1
Test [4] deals with Candida albicans (10231). The test is described as above. In kind it is cell-based. As to conditions: 48 hrs at 36° C., Sabouraud Dextrose Broth. The procedure: as §1
Test [5] relates to Enterobacter gergoviae (33028). The description is as above. In kind it is cell-based. As to conditions: 48 hrs at 36° C., visual inspection. The procedure: as §1
In test [6] the test system is Enterococcus hirae (8043). The test is described as above. In kind it is cell-based. The note with it: 48 hrs at 36° C., visual inspection. The procedure:
as §1

Test [7] has as its system Escherichia coli (10536). The test is described as above. In kind it is cell-based. As to conditions: 48 hrs at 36° C., visual inspection. The procedure:
as §1

For test [8], the system named is Gliocladium virens (9645). Described as above. As to conditions: 48 hrs at 36° C., Sabouraud Dextrose Broth. In kind it is cell-based. The procedure: as §1
Test [9] deals with Klebsiella pneumoniae (4352). The description is as above. In kind it is cell-based. The note with it: 48 hrs at 36° C., visual inspection. How it is done:
as §1

The subject of test [10] is LB penicillium sp. Described as above. In kind it is cell-based. As to conditions: 48 hrs at 36° C., Sabouraud Dextrose Broth. The procedure:
as §1

The test system of test [11] is Paecilomyces sp. Described as above. In kind it is cell-based. As to conditions: 48 hrs at 36° C., Sabouraud Dextrose Broth. How it is done: as §1
Test [12] has as its system Penicillium pinophilium (11797). The test is described as above. In kind it is cell-based. The note with it: 48 hrs at 36° C., Sabouraud Dextrose Broth. How it is done: as §1
Test [13] deals with Pseudomonas aeruginosa (15442). The test is described as above. In kind it is cell-based. The note with it: 48 hrs at 36° C., visual inspection. The procedure:
as §1

Test [14] relates to Pseudomonas aeruginosa (9027). Described as above. The note with it: 48 hrs at 36° C., visual inspection. In kind it is cell-based. The procedure:
as §1

The test system of test [15] is Staphylococcus aureus (6538). Described as above. In kind it is cell-based. As to conditions: 48 hrs at 36° C., visual inspection. How it is done:
as §1

The test system of test [16] is Bacillus licheniformis (14580). Put plainly: MIC test against skin microorganisms. In kind it is cell-based. As to conditions: 48 hrs at 36° C., two different sets. The procedure:
(§2) MICs for the organisms were determined using a standard 96-well microtiter plate assay in Trypic Soy Broth (TSB). […] Bacteria were grown in Tryptic Soy Broth or Brain Heart Infusion (E. hirae) for 24 hrs and were adjusted to one million cells per milliliter in same type of broth. Following incubation (48 hrs at 36° C.), the lowest concentration of test compound inhibiting growth was recorded as the Minimum Inhibitory Concentration (MIC). The actives were serially diluted and tested at final concentrations ranging from 156.3-0.61 ppm. MIC was run for two different sets.
(§3) Bacteria were grown overnight in Tryptic Soy Brother (TSB) or Brain Heart Infusion (BHI) and were adjusted to approximately 1×10^6 colony forming units per ml (cfu/ml) and used to inoculate the wells. Final bacterial concentration in the test wells was 5×10^5 cfu/ml. For Corynebacterium spp, TSB was used for the first set and BHI for the second set. Inoculated microtiter plates were incubated at 36° C. for 48 hours.
(§4) The lowest concentration of test compound inhibiting growth was recorded as the minimum inhibitory concentration.

Test [17] relates to Corynebacterium minutissimum (23348). Put plainly: MIC test against skin microorganisms. In kind it is cell-based. As to conditions: 48 hrs at 36° C., TSB first set, BHI second set. How it is done:
as §2, §3, §4

Test [18] deals with Corynebacterium xerosis (373). Put plainly: MIC test against skin microorganisms. The note with it: 48 hrs at 36° C., TSB first set, BHI second set. In kind it is cell-based. How it is done:
as §2, §3, §4

Test [19] deals with Staphylococcus epidermidis (12228). Put plainly: MIC test against skin microorganisms. In kind it is cell-based. The note with it: 48 hrs at 36° C., two different sets. The procedure: as §2, §3, §4
In test [20] the test system is Staphylococcus haemolyticus (29970). The test can be described thus: MIC test against skin microorganisms. The note with it: 48 hrs at 36° C., two different sets. In kind it is cell-based. The procedure:
as §2, §3, §4

The test system of test [21] is mixed pool of bacteria (Staphylococcus epidermis, Corynebacterium minutissimum, Staphylococcus haemolyticus, Corynebacterium xerosis, Micrococcus luteus) on …. The test can be described thus: Control of growth of skin microorganisms on pig skin. In kind it is cell-based, skin bacteria on pig skin. The note with it: 200 ppm in ethanol, 100 μl on pig skin, mixed bacterial pool, 35° C., 8 hour time period. The procedure:
To further investigate the potential of the bispyridine amine compounds of the present invention for use as antimicrobial active ingredients in personal care products and cosmetics, the efficacy of octenidine distearate in controlling growth of skin microorganisms compared to Cosmocil® S was evaluated using different skin mimics. Testing was performed using pig skin. Although alternatives, such as VITRO-SKIN®, offered a less variable test matrix, it was decided that testing on pig skin was a better model for this application, as the pig skin allowed for actual growth of bacteria on the surface, not merely the survival of bacteria on the surface, providing more representative user skin conditions. The typical skin microorganisms Staphylococcus epidermis (ATCC 12228), Corynebacterium minutissimum (ATCC 23348), Staphylococcus haemolyticus (ATCC 29970), Corynebacterium xerosis (ATCC 373), and Micrococcus luteus (ATCC 4698), were grown in Tryptic Soy Broth (TSB) at 35-37° C. for approximately 24 hours. Each bacterial suspension was diluted 1:50 in TSB and then inoculum was prepared by mixing equal volume of each bacterial suspension. The final inoculum was plated in TSA to get an accurate count and used as a mixed pool of bacteria. […] Plates were incubated at 35-37° C. for 48 hours before the colonies were counted, and the mean values calculated.

Structures are written as SMILES. Where a name gives a salt, the structure may show the parent alone.

This note sets out measurements from patent US9687432B2, “Antimicrobial bispyridine amine compositions and uses” (LONZA INC., priority 2012, dated 2017).

Usually MIC stands for the lowest concentration that inhibits growth of the organism. Lower therefore signals greater potency.

In the case of `CCCCCCCCN=c1ccn(CCCCCCCCCCn2ccc(=NCCCCCCCC)cc2)cc1` [Octenidine HCl, Octenidine dihydrochloride], the MIC in test [1] amounted to 1.22 µg/mL; in test [2], 0.61 µg/mL; in test [3], 0.61 µg/mL; in [4], 0.31 µg/mL; in test [5] (Pluralibacter gergoviae) it was 1.22 µg/mL; in [6], 0.61 µg/mL. The MIC in [7] is 0.61 µg/mL; in test [8] (Trichoderma virens) it was less than 0.31 µg/mL; in test [9], 0.61 µg/mL; in test [10], 0.61 µg/mL; in [11] it was 78.1 µg/mL; in test [12], less than 0.31 µg/mL. In addition, the minimum inhibitory concentration (MIC) in test [13] is 1.22 µg/mL; in [14], 1.22 µg/mL; in test [15], 0.61 µg/mL.

Turning to `CCCCCCCCCCCCCCCCCC(=O)O.CCCCCCCCCCCCCCCCCC(=O)O.CCCCCCCCN=c1ccn(CCCCCCCCCCn2ccc(=NCCCCCCCC)cc2)cc1` [Octenidine distearate, octenidine distearate], the “Minimum Inhibitory Concentration (MIC)” value in test [1] came to 9.77 ppm; in test [2] it was 1.22 ppm; in test [3] it was 1.22 ppm; in test [4], 0.61 ppm; in test [5], 4.88 ppm; in [6] it was 4.88 ppm. In addition, the “Minimum Inhibitory Concentration (MIC)” value is recorded as 2.44 ppm in test [7]; 2.44 ppm in [8]; 2.44 ppm in [9]; 2.44 ppm in [10]; 156.25 ppm in test [11]; 2.44 ppm in [12]. The “Minimum Inhibitory Concentration (MIC)” value was 19.53 ppm in [13], 4.88 ppm in test [14] and 2.44 ppm in test [15]. The “MIC (ppm)” value in test [16] is given as 9.76-19.53 ppm; in [17] it was 2.44-39.06 ppm; in [18], 39.06 ppm; in test [19] it was 4.88-9.76 ppm; in test [20], 4.88-9.76 ppm. For the same compound, the “efficacy in controlling growth of skin microorganisms (CFU/cm^2 of skin, FIG. 1)” value in test [21] is recorded as “equally as effective as Cosmocil® S”.
